Measurements published in the METLIN SMRT retention time set (Domingo-Almenara et al. 2019).

Experiment: gradient 5% acetonitrile 3 min, to 50% in 2 min, to 85% in 15 min, held 3 min, 100 µL/min
Settings: column: Zorbax Extend-C18 2.1 x 50 mm; eluents: water / acetonitrile, 0.1% formic acid
Summary of the method: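 Pure standards were analyzed in mixtures of ~100 molecules using HPLC coupled to a quadrupole time-of-flight mass spectrometer, in both positive and negative ionization mode. Separation used a Zorbax Extend-C18 column (2.1 × 50 mm, 1.8 μm) at 100 μL/min, with water and acetonitrile each containing 0.1% formic acid. Dead and dwell volumes were 40 μL and 900 μL, and data were collected over 3 months. Retention time was read from computationally picked adduct peaks, each inspected manually.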
Molecule `CCN1c2cc(C(=O)Nc3ccc4c(c3)OCCO4)ccc2C(=O)N2CCCCC21` (configuration not stated) has an RP-LC retention time of 821 s. Work on `O=C(CN1C(=O)CCCc2cc(S(=O)(=O)N3CCCCCC3)ccc21)N1CCc2ccccc2C1` yielded an RP-LC retention time of 974 s. Work on `COC(=O)c1c(-c2ccccc2)noc1NCc1ccc(OC)cc1OC` yielded an RP-LC retention time of 1070 s. Work on `Cc1cccc(NC(=O)N2CCCC2c2nc(-c3ccccc3)no2)c1C` (configuration not stated) yielded an RP-LC retention time of 977 s. Work on `O=C(CCCCCCC(=O)Nc1ccccc1)NO` yielded an RP-LC retention time of 660 s. Work on `Cc1nc2cc3c(cc2n1CC(=O)NCCOc1ccc(Cl)cc1)OCCO3` yielded an RP-LC retention time of 674 s. `CCS(=O)(=O)N1CCCN(C(=O)NC(C)(C)C)CC1` gave an RP-LC retention time of 663 s. `COc1cccc(CNC(=O)c2nnc(-c3ccc(S(=O)(=O)N4CCCC4)cc3)o2)c1` showed an RP-LC retention time of 874 s. `O=C(CCNc1c(-c2ccccc2)nc2cnccn12)N1CCC(N2CCCCC2)CC1` gave an RP-LC retention time of 552 s. For `Cc1nn(-c2ccccc2)c(C)c1S(=O)(=O)N1CCC(C(=O)Nc2cccc(Cl)c2)CC1`, the RP-LC retention time was 1040 s. With `COc1cccc(-c2nc3cnccn3c2NCCC(=O)Nc2ccc3c(c2)OCCO3)c1` the RP-LC retention time was 672 s. Work on `COc1ccc(C(O)Cn2ccn3nc(-c4ccc(C)c(C)c4)cc3c2=O)cc1OC` (configuration not stated) yielded an RP-LC retention time of 881 s. Molecule `O=C(Nc1ccccc1)N1CCN(c2ncccc2-c2nnc(C3CC3)o2)CC1` has an RP-LC retention time of 750 s. With `CCc1cc(C(=O)NCc2ccc(C)o2)nc2cc(-c3ccco3)nn12` the RP-LC retention time was 767 s. With `CC(C)c1noc(-c2cc(=O)n(CC(=O)NCc3ccccc3F)c3ccccc23)n1` the RP-LC retention time was 959 s. Molecule `COCC1CN(C2CCC2)CC12CCN(C(=O)c1ccc(C)s1)CC2` (configuration not stated) has an RP-LC retention time of 645 s. For `O=C(NCc1ccc2c(c1)OCO2)C1CCCN(c2ncc(-c3ccc(F)cc3)cn2)C1` (configuration not stated), the RP-LC retention time was 998 s. `O=C(c1cc(Cl)ccc1F)N1CCc2nc(-c3ccc(Cl)cc3)ncc2C1` gave an RP-LC retention time of 1150 s. In the case of `COC(=O)c1c(NC(=O)CSc2nnnn2-c2ccccc2OC)sc2c1CCC2`, the RP-LC retention time is reported as 1060 s. For `CCOC(=O)c1ccc(NC(=O)NC2CC(=O)N(C3CCCC3)C2)cc1` (configuration not stated), the RP-LC retention time was 768 s. In the case of `CCc1nn2c(CNC(=O)c3ccccc3Cl)c(C)nc2s1`, the RP-LC retention time is reported as 650 s. Molecule `Cc1cc(C)c(C)c(S(=O)(=O)NCCc2cn(CC(C)C)c3ncccc23)c1C` has an RP-LC retention time of 1120 s. For `O=C1CCCc2cc(S(=O)(=O)NCCCN3CCN(c4ccccc4F)CC3)ccc2N1`, the RP-LC retention time was 621 s. `C=CCn1c(=O)c2ccccc2n(Cc2nc(-c3cccc(Cl)c3)no2)c1=O` gave an RP-LC retention time of 1110 s. `COc1ccc(-c2nsc(SCC(=O)N3CCCCCC3)n2)cc1` gave an RP-LC retention time of 846 s. With `CCN1C(=O)c2cccnc2Sc2cc(NC(=O)CCOC)ccc21` the RP-LC retention time was 645 s. With `COc1ccc(Cc2nc3nccc(-c4ccsc4)n3n2)cc1` the RP-LC retention time was 897 s. `COc1ccc(-c2nnc(-c3ccc(C)c(S(=O)(=O)N4CCC(C)CC4)c3)o2)cc1` gave an RP-LC retention time of 1220 s. `CCOc1ccc2nc(NC(=O)C3CCN(S(=O)(=O)c4cn(C)c(C)n4)CC3)sc2c1` gave an RP-LC retention time of 772 s. `COCCCNS(=O)(=O)c1ccccc1-c1nc(-c2cccc(F)c2)no1` gave an RP-LC retention time of 1040 s. Molecule `O=C(NCC1CCN(C(=O)COc2ccccc2)CC1)c1ccccc1C(F)(F)F` has an RP-LC retention time of 753 s. In the case of `CCCN1C(=O)COc2ccc(-c3csc(NC(=O)COc4ccc(Cl)cc4Cl)n3)cc21`, the RP-LC retention time is reported as 1210 s. Work on `O=C(Cn1c(-c2ccc(F)cc2)nc2ccccc21)N1CCCCC1` yielded an RP-LC retention time of 675 s. Molecule `O=c1c2cnc(N3CCOCC3)nc2ccn1CCc1c[nH]c2ccccc12` has an RP-LC retention time of 801 s. `Cc1cc(NC(=O)C(=O)c2ccc[nH]2)ccc1Br` showed an RP-LC retention time of 1040 s. In the case of `CCOC(=O)c1ccc(NC(=O)c2sccc2S(=O)(=O)N(C)c2ccc(OCC)cc2)cc1`, the RP-LC retention time is reported as 1230 s. `CCCn1cc(S(=O)(=O)Nc2cc(C)cc(C)c2)c2cccnc21` gave an RP-LC retention time of 946 s. `Nc1cc(-c2cccs2)nn1CCO` showed an RP-LC retention time of 562 s. `Cc1ccc(Cl)cc1N1CCN(c2ccc3cc(S(=O)(=O)N4CCCC4)ccc3n2)CC1` gave an RP-LC retention time of 1240 s. Work on `CN(c1nccn2c(=O)n(CC(=O)Nc3ccc(F)cc3F)nc12)C1CCCCC1` yielded an RP-LC retention time of 902 s. With `COc1cccc(CNC2=NCCNC23CCN(S(=O)(=O)c2ccc(Cl)cc2)CC3)c1` the RP-LC retention time was 738 s. Molecule `Clc1ccc(-c2csc(N3CCC(c4ccccc4)C3)n2)cc1` (configuration not stated) has an RP-LC retention time of 814 s. `N#Cc1ccc(C(=O)N2CCN(c3cc(-c4ccc(F)cc4)[nH]n3)CC2)cc1` gave an RP-LC retention time of 767 s. `COC(=O)c1c(C)[nH]c(C(=O)N2CCC(CC(=O)NCc3cccc(F)c3)CC2)c1C` showed an RP-LC retention time of 735 s. With `CCc1ccc(CN2C(=O)c3ccccc3C2C(=O)NCC2CCCO2)cc1` (configuration not stated) the RP-LC retention time was 830 s. Work on `CCOC(=O)c1cccc(Nc2c(C(=O)N3CCCCC3CC)cnc3nc(C)ccc23)c1` (configuration not stated) yielded an RP-LC retention time of 704 s. Work on `Cc1ccc(-c2ccc(N3CCCC(C(=O)NCc4ccc(C(C)C)cc4)C3)nn2)cc1` (configuration not stated) yielded an RP-LC retention time of 889 s. Molecule `O=C(CC1CCCN(c2cnn(CC3CC3)c(=O)c2)C1)NC1CC1` (configuration not stated) has an RP-LC retention time of 651 s. In the case of `c1ccc(-c2nc(CSc3ccc(-n4ccnc4)nn3)cs2)cc1`, the RP-LC retention time is reported as 636 s. `CC(NC(=O)c1cn2c(n1)CCCC2)c1ccc(F)cc1` (configuration not stated) showed an RP-LC retention time of 612 s. With `Cc1noc(-c2ccc(=O)n(CC(=O)NC3CCc4ccccc43)c2)n1` (configuration not stated) the RP-LC retention time was 669 s. For `COCCOC1CCC12CCN(C(=O)c1cn[nH]c1)CC2` (configuration not stated), the RP-LC retention time was 617 s. Work on `O=C(Nc1ccc(F)cc1)c1ccc(Cl)s1` yielded an RP-LC retention time of 908 s. `CCCn1cc(C2=CCN(S(=O)(=O)c3c(C)nn(C)c3C)CC2)c2cccnc21` showed an RP-LC retention time of 896 s. With `COc1ccc(-c2cc(C(=O)N3CCCC3c3c(C)noc3C)on2)cc1` (configuration not stated) the RP-LC retention time was 856 s. Work on `Cc1ccccc1N1CCN(C(=O)CCC2CCN(c3cc(NC4CC4)ncn3)CC2)CC1` yielded an RP-LC retention time of 768 s. `CCOC(=O)c1nnc2c(-c3ccccc3)cnn2c1C` showed an RP-LC retention time of 961 s. Molecule `Cc1ccccc1CN1C[C@@H]2C(=O)N(Cc3ccc4c(c3)OCO4)C(=O)[C@@H]2C1` has an RP-LC retention time of 824 s. `Cc1c2ccncc2c(C)c2c1sc1ccccc12` showed an RP-LC retention time of 714 s. Work on `Cc1n[nH]c(C)c1Sc1ccccc1[N+](=O)[O-]` yielded an RP-LC retention time of 739 s. With `Cc1oc(-c2ccc(NC(=O)C3CCCCC3)cc2)nc1Cn1cccn1` the RP-LC retention time was 924 s. For `Cc1nc(C)c(C(=O)N2CCC(Oc3nc4c(C)ccc(C)c4s3)CC2)s1`, the RP-LC retention time was 1090 s. Molecule `Cc1nc2cccnc2n1CCN1CCN(C(=O)Nc2cccc(Cl)c2)CC1` has an RP-LC retention time of 604 s. In the case of `COc1ccc(N2CCN(c3nccc4ccc(C(=O)NC5CCCCC5)cc34)CC2)cc1`, the RP-LC retention time is reported as 771 s. `Cc1ccn2cc(-c3ccc(NC(=O)c4ccc(Br)o4)cc3)nc2n1` showed an RP-LC retention time of 647 s. With `CCSc1nnc(-c2nn(C)c3c2CN(S(=O)(=O)Cc2ccccc2Cl)CC3)n1CC` the RP-LC retention time was 960 s. Work on `CC(=O)N1CCc2cc(S(=O)(=O)CCC(=O)N3CCC(CCOc4ccccc4)C3)ccc21` (configuration not stated) yielded an RP-LC retention time of 822 s.
